# Experimental data published in PMC6472190, “Enhanced Liver Targeting of Camptothecin via Conjugation with Deoxycholic Acid” (Molecules, 2019).
# Where two headings read alike, the source gives them in different places.
# What was measured:
# HepG2 cells [1] = experiment: Cellular uptake in HepG2 2D cell model with deoxycholic acid pretreatment; type: cell-based, human; conditions: HepG2 2D model, deoxycholic acid 0.5 h, then 10 μM compound 2 h
# Procedure: Cellular uptake of G2 and CPT into 2D HepG2 cell model was performed as described previously with slight modifications. […] Then, cells were cultured in an incubator at 37 °C. After reached 80% confluence, cell monolayers were pretreated with deoxycholic acid at different concentrations for 0.5 h. Next, the inhibitor of deoxycholic acid was removed and cells were washed twice with Hank’s balanced salt solution (HBSS). After 2 h incubation with 10 μM G2 or CPT, cells were washed three times with HBSS and digested with 200 μL of trypsin for 2 min to obtain single cell suspensions. Next, the cells were washed three times with cold HBSS and 250 μL of HBSS was added to resuspend the pellets. Then, the cells were lysed by freeze-thaw three times and sonicated for 10 min. […] The compound concentration was calculated by the corresponding standard curve. The protein concentration of the supernatant was determined by the Bradford method based on a standard curve made by desired concentrations of bovine serum albumin. The cellular uptake was presented as the quantity of G2 or CPT associated with 1 mg of cellular protein [32, 33].
# (§1) Both G2 and CPT were measured by HPLC analysis, which was performed using a Shimadzu HPLC system (Shimadzu, Kyoto, Japan). […] The column was maintained at 30 °C and the absorbance detector wavelength was 363 nm. […]
# HepG2 spheroids = experiment: Cellular uptake in HepG2 3D spheroid cell model with deoxycholic acid pretreatment; type: cell-based, human; conditions: HepG2 3D model
# Procedure: The liquid overlay method was employed for the culturing of HepG2 spheroids as described previously. Cells reached logarithmic growth phase were digested by trypsin then centrifuged. The cell number was counted using a hemocytomete and cells were diluted in growth medium to a density of 1 × 10^4 cells/mL. Spheroids were seeded by pipetting 2 mL of the cell suspension into each well of a 6-well ultra-low attachment (ULA) plates (Corning®, Wujiang, China) and incubated for 3 days.
# After HepG2 spheroids were prepared as 3.3, they were transferred into 4 mL centrifuge tube and washed twice with HBSS. Then, the spheroids were resuspended with deoxycholic acid at different concentrations and seeded into the 6-well ULA plates again. After being cultured in an incubator for 0.5 h at 37 °C, the spheroids were transferred into 4 mL centrifuge tube and washed twice with HBSS to remove the deoxycholic acid. Then, they were resuspended with 10 μM G2 or CPT and seeded into the 6-well ULA plates. After being cultured in an incubator for 2 h at 37 °C, the spheroids were transferred into 4 mL centrifuge tube and washed three times with HBSS. […]
# as §1
# [2] = Stability in simulated gastric fluid (SGF); type: in vitro ADME; conditions: 3 h
# Procedure: (§2) The stability of G2 and CPT was assessed in SGF, SIF and fresh rat plasma. SGF and SIF were prepared according to a previous report with slight modifications. Briefly, 0.3% (w/v) purified pepsin, 2 g of NaCl and 7 mL of HCl (12 M) were dissolved in 1000 mL of distilled water to obtain SGF (PH 1.2). To make SIF (PH 6.8), 6.8 g of KH2PO4, 1.0% (w/v) purified pancreatin and 77 mL of NaOH (0.2 M) were dissolved in 1000 mL of distilled water. SGF, SIF and rat plasma containing 10 μM G2 or CPT were incubated at 37 °C. At scheduled time points (0, 5, 10, 20, 30, 60, 90, 120, 180 min), 100 μL samples were collected and reaction was quenched immediately by adding 400 μL of ice cold acetonitrile. The mixture was votexed 2 min and centrifuged at 12000 rpm for 10 min. Then, the supernatant was filtered with a filter (0.22 μm) and detected by HPLC.
# (§3) To determine the concentration of G2 and CPT in the stability investigation, a C18 (5 μm, 4.6 × 250 mm, Elite, Dalian, China) reverse-phase column was used. The chromatographic separation was performed on isocratic elution with acetonitrile-0.1% formic acid (80:20, v/v) and acetonitrile-0.1% formic acid (60:40, v/v) for G2 and CPT, respectively. Other conditions were the same as cell model.
# [3] = Stability in simulated intestinal fluid (SIF); type: in vitro ADME; conditions: SIF pH 6.8, 10 μM, 37 °C, 3 h
# Procedure: as §2, §3
# [4] = Stability in fresh rat plasma; type: in vitro ADME; conditions: 10 μM, 3 h
# Procedure: as §2, §3
# [5] = In vivo body distribution and pharmacokinetics after oral administration; parameters: species or system Kunming mice; conditions: male, Kunming, mouse
# Procedure: For body distribution investigations, 80 male Kunming mice (weight, 18–22 g; age, 6–8 weeks) were used. The animal experiments in this study were performed under the guidance of the care and use of laboratory animals in Zhejiang University of Technology, Hangzhou, China, and conformed to the National Institutes of Health Guide for Care and Use of Laboratory Animals (Publication No. 85-23). After fasting overnight, mice were received a single dose of G2 or CPT (30 mg/kg, calculated as CPT) suspension by gavage. At desired time (0.5, 1, 2, 4, 6, 8, 12 h), animals were sacrificed. Their blood samples were collected by eyeball removal and immediately centrifuged to separate plasma. The organs (heart, liver, spleen, lung, kidney) were removed and weighed before homogenization. And the plasma and tissue homogenate samples were stored at −80 °C until analysis.
# For determination of the compound concentration, 200 μL methanol and 100 μL acetonitrile were added to 100 μL plasma or tissue homogenate to precipitate protein, and 5 μL IS (2 μM) was also added. Mixtures were votexed for 2 min and centrifuged at 12,000 rpm for 10 min at 4 °C. Then, supernatant was transferred to a new tube and evaporated by an EZ-2 personal solvent evaporator (Genevac, Suffolk, UK). Finally, 50 μL of 50% acetonitrile (v/v) was added to re-dissolve the samples. After centrifuged at 13,000 rpm for 10 min, the supernatant was used for HPLC analysis.
# To determine G2 and CPT concentration in plasma and tissue homogenate, an Inertsil ODS-SP C18 column (5 μm, 4.6 × 250 mm; GL Sciences) was used. The mobile phase was made up of acetonitrile (A) and 0.1% formic acid (B). CPT was separated by an isocratic elution with 35:65 (v/v) A:B. A gradient eluant ((A:B) 0–3 min: 35:65; 3–8 min: from 35:65 to 80:20; 8–20 min: 80:20; 20–21 min: from 80:20 to 35:65; 21–25 min: 35:65) was used to separate G2. Other conditions were the same as cell model.
# The pharmacokinetic analysis using a non-compartmental model with the PKSolver pharmacokinetic software (China Pharmaceutical University, Nanjing, China) was conducted to calculate the key parameters of G2 and CPT. In order to evaluate whether the conjugate had the trend of liver targeting, liver targeting index (LTI) was calculated by Equation (1) below:LTI = AUC0–t’ in liver/AUC0–t in plasma (1) where AUC0–t’ in liver is the AUC0–t of drug in liver and AUC0–t in plasma is the AUC0–t of drug in plasma. All the data were presented as mean ± SD. Statistical analysis were performed by Student’s t-test using the SPSS 22.0 statistical software program (IBM company, Denver, CO, USA), and p < 0.05 was used as the criterion for statistical significant.
# HepG2 cells [6] = experiment: Competitive inhibition of antitumor activity (MTT assay) with deoxycholic acid pretreatment; conditions: for effect of deoxycholic acid pretreatment on cytotoxicity: HepG2, 1 μM deoxycholic acid 0.5 h, then 1 μM compound 48 h; for viability at 1 µM: Homo sapiens
# Procedure: After reaching logarithmic growth phase, HepG2 cells were passaged and 100 μL of the cell suspension was seeded into 96-well plates at a density of 5 × 10^4 cells/mL, then cells were cultured in an incubator (Thermo Fisher Scientific, Marietta, Ohio, USA) at 37 °C. After reached 80% confluence, cell monolayers were firstly incubated with or without 1 μM deoxycholic acid for 0.5 h. […] Next, cells were further incubated at 37 °C for 48 h. Then 20 μL of MTT reagent (5 mg/mL in PBS) was added and cells were incubated for another 4 h at 37 °C to allow MTT to be metabolized into formazan. Finally, the media was tapped out and 150 μL of DMSO was added to each well to dissolve the formazan crystals. After mixing, the absorbance was quantified at 490 nm using an ELISA Plate Reader (infinite M200 Pro, TECAN, Grodig, Salzburg, Austria).
# [7] = heart, po, 30 mg/kg, mice, oral 30 mg/kg calculated as CPT
# [8] = kidney, po, 30 mg/kg, mice, oral 30 mg/kg calculated as CPT
# [9] = liver, po, 30 mg/kg, mice, oral 30 mg/kg calculated as CPT
# [10] = lung, po, 30 mg/kg, mice, oral 30 mg/kg calculated as CPT
# [11] = plasma, po, 30 mg/kg, mice, oral 30 mg/kg calculated as CPT
# [12] = spleen, po, 30 mg/kg, mice, oral 30 mg/kg calculated as CPT
compound,measurement,setting,value
"CC[C@@]1(O)C(=O)OCc2c1cc1n(c2=O)Cc2cc3ccccc3nc2-1 [CPT, Camptothecin]",effect of deoxycholic acid pretreatment on uptake,HepG2 cells [1],no obvious change
same,effect of deoxycholic acid on cellular uptake,"HepG2 spheroids; deoxycholic acid 0.5 h, then 10 μM compound 2 h",no distinct effect
same,degraded rate after incubation in SGF,"[2]; SGF pH 1.2, 10 μM, 37 °C",37.9%
same,degraded after incubation in SIF,[3],16.1%
same,remaining after incubation in rat plasma,"[4]; fresh rat plasma, 37 °C",24.4%
same,MRT inf,"[5]; heart, po, 30 mg/kg, heart, mice, oral 30 mg/kg calculated as CPT, read-out: MRT0–∞",6.35 ± 2.71 h
same,AUC(0-inf),[5]; [7],3.64 ± 1.61 µM·h
same,AUC(0-t),[5]; [7],2.86 ± 0.983 µM·h
same,Cmax,[5]; [7],954 ± 207 nM
same,Tmax,[5]; [7],0.6 ± 0.2 h
same,MRT inf,"[5]; kidney, po, 30 mg/kg, kidney, mice, oral 30 mg/kg calculated as CPT, read-out: MRT0–∞",5.32 ± 0.46 h
same,AUC(0-inf),[5]; [8],5.45 ± 1.19 µM·h
same,AUC(0-t),[5]; [8],4.83 ± 1.04 µM·h
same,Cmax,[5]; [8],1330 ± 218 nM
same,Tmax,[5]; [8],0.8 ± 0.245 h
same,Kp,"[5]; liver and plasma, mice, oral 30 mg/kg calculated as CPT, read-out: liver targeting index (LTI) = AUC0–t in liver/AUC0–t in plasma",4.84
same,MRT inf,"[5]; liver, po, 30 mg/kg, liver, mice, oral 30 mg/kg calculated as CPT, read-out: MRT0–∞",4.26 ± 0.38 h
same,AUC(0-inf),[5]; [9],7.46 ± 1.54 µM·h
same,AUC(0-t),[5]; [9],6.95 ± 1.32 µM·h
same,Cmax,[5]; [9],2080 ± 243 nM
same,Tmax,[5]; [9],1 h
same,MRT inf,"[5]; lung, po, 30 mg/kg, lung, mice, oral 30 mg/kg calculated as CPT, read-out: MRT0–∞",7.25 ± 1.77 h
same,AUC(0-inf),[5]; [10],12.4 ± 4.43 µM·h
same,AUC(0-t),[5]; [10],9.8 ± 2.59 µM·h
same,Cmax,[5]; [10],1640 ± 325 nM
same,Tmax,[5]; [10],1.2 ± 0.4 h
same,MRT inf,"[5]; plasma, po, 30 mg/kg, plasma, mice, oral 30 mg/kg calculated as CPT, read-out: MRT0–∞",3.22 ± 0.578 h
same,AUC(0-inf),[5]; [11],1.68 ± 0.252 µM·h
same,AUC(0-t),[5]; [11],1.56 ± 0.26 µM·h
same,Cmax,[5]; [11],465 ± 84 nM
same,Tmax,[5]; [11],0.5 h
same,MRT inf,"[5]; spleen, po, 30 mg/kg, spleen, mice, oral 30 mg/kg calculated as CPT, read-out: MRT0–∞",6.96 ± 2.95 h
same,AUC(0-inf),[5]; [12],9.29 ± 2.53 µM·h
same,AUC(0-t),[5]; [12],7.56 ± 1.72 µM·h
same,Cmax,[5]; [12],1530 ± 195 nM
same,Tmax,[5]; [12],0.9 ± 0.2 h
same,effect of deoxycholic acid pretreatment on cytotoxicity,HepG2 cells [6],no distinct effects
"CC[C@@]1(OC(=O)COC(=O)CC[C@@H](C)[C@H]2CC[C@H]3[C@@H]4CC[C@@H]5C[C@H](O)CC[C@]5(C)[C@H]4C[C@H](O)[C@]23C)C(=O)OCc2c1cc1n(c2=O)Cc2cc3ccccc3nc2-1 [G2, CPT-20 (S)-O-acetate-deoxycholic acid]",decrease of cellular uptake compared to deoxycholic acid-free group,"HepG2 spheroids; pretreatment with 200 μM deoxycholic acid 0.5 h, 10 μM compound 2 h",66.4%
same,degraded rate after incubation in SGF,"[2]; 10 μM, pH 1.2",15.0%
same,remaining after incubation in rat plasma,"[4]; rat, plasma",42.3%
same,AUC0–t in liver relative to CPT,"[5]; in vivo, po",2.31 fold
same,increase of liver targeting index in comparison to CPT,"[5]; in vivo, po",1.67 fold
same,Kp,"[5]; in vivo, po, 30 mg/kg",8.07
same,MRT inf,"[5]; in vivo, po, 30 mg/kg, MRT0–∞",4.36 ± 0.645 h
same,effect of deoxycholic acid pretreatment on cytotoxicity,HepG2 cells [6],markedly reduced
same,viability at 1 µM,"HepG2 cells [6]; HepG2, read-out: cell viability, HepG2, 1 μM compound 48 h, after pretreatment with 1 μM deoxycholic acid for 0.5 h",71.1%
same,viability at 1 µM,"HepG2 cells [6]; HepG2, read-out: cell viability, HepG2, 1 μM compound 48 h, without deoxycholic acid pretreatment",51.3%
